For one test, the target named is T1, human TLR7 (Homo sapiens, UniProt Q9NYK1).
T1 construct: host or cells: HEK293-Blue-hTLR7 (HEK293)
T1 sequence (Q9NYK1 27-1049): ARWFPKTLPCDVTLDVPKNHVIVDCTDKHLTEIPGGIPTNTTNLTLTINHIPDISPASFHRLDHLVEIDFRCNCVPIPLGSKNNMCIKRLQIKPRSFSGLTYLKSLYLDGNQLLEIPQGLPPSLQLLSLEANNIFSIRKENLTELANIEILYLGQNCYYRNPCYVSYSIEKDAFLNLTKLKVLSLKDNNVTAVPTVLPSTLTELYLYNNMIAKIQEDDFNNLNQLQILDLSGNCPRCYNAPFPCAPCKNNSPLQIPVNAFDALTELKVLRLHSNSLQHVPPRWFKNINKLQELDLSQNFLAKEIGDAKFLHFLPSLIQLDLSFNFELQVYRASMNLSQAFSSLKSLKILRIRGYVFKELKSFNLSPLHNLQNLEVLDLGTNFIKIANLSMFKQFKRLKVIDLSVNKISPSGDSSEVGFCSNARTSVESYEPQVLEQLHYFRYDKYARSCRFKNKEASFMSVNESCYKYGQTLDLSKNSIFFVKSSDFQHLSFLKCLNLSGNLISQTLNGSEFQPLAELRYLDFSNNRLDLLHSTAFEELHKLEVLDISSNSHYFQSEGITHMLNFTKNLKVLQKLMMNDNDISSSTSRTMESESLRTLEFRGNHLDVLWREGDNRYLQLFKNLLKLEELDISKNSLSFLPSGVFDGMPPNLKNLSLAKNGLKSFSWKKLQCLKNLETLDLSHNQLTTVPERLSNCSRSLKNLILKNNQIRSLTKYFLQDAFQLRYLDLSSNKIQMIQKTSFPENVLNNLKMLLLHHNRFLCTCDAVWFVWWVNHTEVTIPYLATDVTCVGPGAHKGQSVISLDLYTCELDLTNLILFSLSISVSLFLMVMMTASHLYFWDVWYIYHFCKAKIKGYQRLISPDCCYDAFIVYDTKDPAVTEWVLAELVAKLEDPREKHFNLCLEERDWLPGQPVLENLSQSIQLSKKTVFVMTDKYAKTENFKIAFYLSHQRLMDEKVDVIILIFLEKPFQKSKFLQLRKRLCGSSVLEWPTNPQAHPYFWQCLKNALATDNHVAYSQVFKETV
Briefly: HEK293-Blue-hTLR7 cells assay (NF-κB SEAP reporter). The settings on record: 20 hrs incubation, agonism. Format: cell-based. An excerpt:
A stable HEK293-Blue-hTLR7 cell line was purchased from InvivoGen (Cat. #: hkb-htlr7, San Diego, California, USA). These cells were designed for studying the stimulation of human TLR7 by monitoring the activation of NF-κB. A SEAP (secreted embryonic alkaline phosphatase) reporter gene was placed under the control of the IFN-β minimal promoter fused to five NF-κB and AP-1-binding sites. The SEAP was induced by activating NF-κB and AP-1 via stimulating HEK-Blue hTLR7 cells with TLR7 ligands. Therefore the reporter expression was regulated by the NF-κB promoter upon stimulation of human TLR7 for 20 hrs. The cell culture supernatant SEAP reporter activity was determined using QUANTI-Blue™ kit (Cat. #: rep-qbl, Invivogen, San Diego, Ca, USA) at a wavelength of 650 nm, a detection medium that turns purple or blue in the presence of alkaline phosphatase.
HEK293-Blue-hTLR7 cells were incubated at a density of 250,000˜450,000 cells/mL in a volume of 180 μL in a 96-well plate in Dulbecco's Modified Eagle's medium (DMEM) containing 4.5 g/L glucose, 100 U/mL penicillin, 100 μg/mL streptomycin, 100 μg/mL Normocin, 1% (V/V) GlutaMAX™, 10% (V/V) heat-inactivated fetal bovine serum for 24 hrs. Then the HEK293-Blue-hTLR-7 cells were incubated with addition of 20 μL test compound in a serial dilution in the presence of final DMSO at 1% and perform incubation under 37° C. in a CO2 incubator for 20 hrs. Then 20 μL of the supernatant from each well was incubated with 180 μL Quanti-blue substrate solution at 37° C. for 1 hours and the absorbance was read at 620-655 nm using a spectrophotometer. The signalling pathway that TLR7 activation leads to downstream NF-κB activation has been widely accepted, and therefore similar reporter assay was also widely used for evaluating TLR7 agonist (Tsuneyasu Kaisho and Takashi Tanaka, Trends in Immunology, Volume 29, Issue 7, July 2008, […]; Hiroaki Hemmi et al, Nature Immunology 3, 196-200 (2002)).

The next test addresses T2, human TLR8 (Homo sapiens, UniProt Q9NR97).
T2 construct: host or cells: HEK293-Blue-hTLR8 (HEK293)
T2 sequence (Q9NR97 27-1041): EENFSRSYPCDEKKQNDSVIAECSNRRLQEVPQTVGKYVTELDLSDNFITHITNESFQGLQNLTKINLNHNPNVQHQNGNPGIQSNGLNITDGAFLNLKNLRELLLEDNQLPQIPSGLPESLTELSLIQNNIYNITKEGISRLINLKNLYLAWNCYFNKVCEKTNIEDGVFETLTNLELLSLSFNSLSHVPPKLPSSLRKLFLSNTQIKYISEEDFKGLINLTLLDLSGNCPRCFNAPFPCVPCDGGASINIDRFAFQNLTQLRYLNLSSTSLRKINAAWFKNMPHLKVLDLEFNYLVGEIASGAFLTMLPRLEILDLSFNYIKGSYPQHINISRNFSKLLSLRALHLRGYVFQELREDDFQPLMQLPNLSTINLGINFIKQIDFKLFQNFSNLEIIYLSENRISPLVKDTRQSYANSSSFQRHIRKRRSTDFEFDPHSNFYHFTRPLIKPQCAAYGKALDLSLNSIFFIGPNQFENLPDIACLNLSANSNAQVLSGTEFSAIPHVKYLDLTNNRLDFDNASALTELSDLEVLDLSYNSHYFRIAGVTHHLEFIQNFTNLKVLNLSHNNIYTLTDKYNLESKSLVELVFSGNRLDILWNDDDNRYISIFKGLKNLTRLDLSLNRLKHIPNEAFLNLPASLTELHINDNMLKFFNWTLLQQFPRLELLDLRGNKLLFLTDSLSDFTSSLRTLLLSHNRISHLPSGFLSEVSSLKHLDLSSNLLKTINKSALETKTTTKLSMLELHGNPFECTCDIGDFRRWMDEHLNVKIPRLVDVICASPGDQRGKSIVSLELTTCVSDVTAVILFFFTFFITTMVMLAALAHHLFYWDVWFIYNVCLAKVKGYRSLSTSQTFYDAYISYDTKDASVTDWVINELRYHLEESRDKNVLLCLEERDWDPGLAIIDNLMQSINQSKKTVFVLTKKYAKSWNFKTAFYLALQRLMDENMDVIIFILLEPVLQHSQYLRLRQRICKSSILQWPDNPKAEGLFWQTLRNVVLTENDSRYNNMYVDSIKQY
Briefly: HEK293-Blue-hTLR8 cells assay (NF-κB SEAP reporter). Format: cell-based. The settings on record: 20 hours incubation, agonism. The text has this: A stable HEK293-Blue-hTLR8 cell line was purchased from InvivoGen (Cat. #: hkb-htlr8, San Diego, California, USA). These cells were designed for studying the stimulation of human TLR8 by monitoring the activation of NF-κB. A SEAP (secreted embryonic alkaline phosphatase) reporter gene was placed under the control of the IFN-β minimal promoter fused to five NF-κB and AP-1-binding sites. The SEAP was induced by activating NF-κB and AP-1 via stimulating HEK-Blue hTLR8 cells with TLR8 ligands. Therefore the reporter expression was regulated by the NF-κB promoter upon stimulation of human TLR8. The cell culture supernatant SEAP reporter activity was determined using QUANTI-Blue™ kit (Cat. #: rep-qbl, Invivogen, San Diego, Ca, USA) at a wavelength of 650 nm, a detection medium that turns purple to blue in the presence of alkaline phosphatase.
HEK293-Blue-hTLR8 cells were incubated at a density of 250,000-450,000 cells/mL in a volume of 180 μL in a 96-well plate in Dulbecco's Modified Eagle's medium (DMEM) containing 4.5 g/L glucose, 100 U/mL penicillin, 100 μg/mL streptomycin, 100 μg/mL Normocin, 1% (V/V) GlutaMAX™, 10% (v/v) heat-inactivated fetal bovine serum for 24 hours. Then the HEK293-Blue-hTLR8 cells were incubated with addition of 20 μL test compound in a serial dilution in the presence of final DMSO at 1% and perform incubation under 37° C. in a CO2 incubator for 20 hours. Then 20 μL of the supernatant from each well was incubated with 180 μL Quanti-blue substrate solution at 37° C. for 1 hours and the absorbance was read at 620-655 nm using a spectrophotometer. The signalling pathway that TLR8 activation leads to downstream NF-κB activation has been widely accepted, and therefore similar reporter assay was also widely used for evaluating TLR8 agonist.

On to `CCOCc1nc2c(N)nc(C)c(Sc3cc(O)c(CN(C)C)cc3C)c2[nH]1` [Example 25, 5-[[4-amino-2-(ethoxymethyl)-6-methyl-1H-imidazo[4,5-c]pyridin-7-yl]sulfanyl]-2-[(dimethylamino)methyl]-4-methyl-phenol], for which the EC50 on human TLR7 came to 33 nM; at human TLR8 it was 61 nM.
In the same order, the values of `CCOCc1nc2c(N)nc(C)c(Sc3ccc(CN4CCCC4)cc3N)c2[nH]1` [Example 26, 7-[2-amino-4-(pyrrolidin-1-ylmethyl)phenyl]sulfanyl-2-(ethoxymethyl)-6-methyl-1H-imidazo[4,5-c]pyridin-4-amine] are 21 nM and 15 nM.
`CCOCc1nc2c(N)nc(C)c(Sc3ccc(CN4CCN(C)CC4)cc3N)c2[nH]1` [Example 27, 7-[2-amino-4-[(4-methylpiperazin-1-yl)methyl]phenyl]sulfanyl-2-(ethoxymethyl)-6-methyl-1H-imidazo[4,5-c]pyridin-4-amine]: the EC50 at human TLR7 worked out at 39 nM; at human TLR8 it was 52 nM.
Regarding `CCOCc1nc2c(N)nc(C)c(Sc3ccc(CN4CCN(C)CC4)c(N)c3)c2[nH]1` [Example 28, 7-[3-amino-4-[(4-methylpiperazin-1-yl)methyl]phenyl]sulfanyl-2-(ethoxymethyl)-6-methyl-1H-imidazo[4,5-c]pyridin-4-amine], the EC50 on human TLR7 was 10 nM; on human TLR8 it was 44 nM.
With `CCOCc1nc2c(N)nc(C)c(Sc3c(N)cc(CN4CCN(C)CC4)cc3OC)c2[nH]1` [Example 29, 7-[2-amino-6-methoxy-4-[(4-methylpiperazin-1-yl)methyl]phenyl]sulfanyl-2-(ethoxymethyl)-6-methyl-1H-imidazo[4,5-c]pyridin-4-amine], the EC50 on human TLR7 stood at 6 nM; at human TLR8, 44 nM.
As for `CCOCc1nc2c(N)nc(C)c(Sc3ccc(NCCN(C)C)nc3)c2[nH]1` [Example 30, N-[5-[[4-amino-2-(ethoxymethyl)-6-methyl-1H-imidazo[4,5-c]pyridin-7-yl]sulfanyl]-2-pyridyl]-N′,N′-dimethyl-ethane-1,2-diamine], the concentration giving a half-maximal response (EC50) at human TLR7 came out at 13 nM; on human TLR8, 11 nM.
Consider `CCOCc1nc2c(N)nc(C)c(Sc3ccc(CCN(C)C)cc3)c2[nH]1` [Example 31, 7-[4-[2-(dimethylamino)ethyl]phenyl]sulfanyl-2-(ethoxymethyl)-6-methyl-1H-imidazo[4,5-c]pyridin-4-amine], for which the EC50 at human TLR7 is 18 nM; on human TLR8 it was 5 nM.
Take `CCOCc1nc2c(N)nc(C)c(Sc3cc4c(cc3O)CN(C)CC4)c2[nH]1` [Example 32, 6-[[4-amino-2-(ethoxymethyl)-6-methyl-1H-imidazo[4,5-c]pyridin-7-yl]sulfanyl]-2-methyl-3,4-dihydro-1H-isoquinolin-7-ol]: the EC50 on human TLR7 amounted to 21 nM; at human TLR8 it was 54 nM.
On to `CCCCc1nc2c(N)nnc(N(C)Cc3ccc(CN(C)C)cc3)c2n1C` [SAN-43, reference compound], for which, at human TLR7, a half-maximal effect (EC50) was put at 310 nM; the “HEK293-hTLR7 EC50” value is “did not show comparable TLR7 and TLR8 activities”. In addition, at human TLR8, the EC50 turned out to be 37 nM; the “HEK293-hTLR8 EC50” value was “did not show comparable TLR7 and TLR8 activities”.

For orientation: EC50 means the concentration giving half of the maximal effect. Read a high EC50 as a need for much substance.

(Values after patent US20260070906A1, “IMIDAZO[4,5-C]PYRIDINE COMPOUNDS FOR THE TREATMENT OF CANCER” (Hoffmann-La Roche Inc., priority 2023, published 2026).)
